Measurements as given in ChEMBL document CHEMBL1140358, “1-Pentyl-3-phenylacetylindoles, a new class of cannabimimetic indoles” (Bioorg Med Chem Lett, 2005).
pEC50, pKi: −log10 of the molar value.

Tests used:
[1] = biological target: T1, Cannabinoid receptor 1 (Rattus norvegicus, UniProt P20272); test: Binding affinity to displace [3H]CP-55940 from CB1 receptor of rat brain
[2] = biological target: T2, Cannabinoid receptor 2 (Homo sapiens, UniProt P34972); test: Binding affinity to displace [3H]CP-55940 from cloned human CB2 receptor
T2 sequence (P34972 whole entry): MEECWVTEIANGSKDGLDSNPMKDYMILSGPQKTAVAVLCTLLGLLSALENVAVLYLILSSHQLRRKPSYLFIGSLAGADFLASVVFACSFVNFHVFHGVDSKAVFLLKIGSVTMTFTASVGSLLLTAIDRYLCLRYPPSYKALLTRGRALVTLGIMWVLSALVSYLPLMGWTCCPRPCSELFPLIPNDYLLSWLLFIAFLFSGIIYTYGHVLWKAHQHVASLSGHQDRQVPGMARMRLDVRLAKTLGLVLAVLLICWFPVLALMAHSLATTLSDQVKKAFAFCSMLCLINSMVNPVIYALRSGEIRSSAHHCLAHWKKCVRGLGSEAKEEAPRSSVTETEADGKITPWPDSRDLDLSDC

[3] = Ratio of the binding affinity towards CB1 receptor to that of CB2 receptor
[4] = biological target: T2, Cannabinoid receptor 2; test: Effective concentration for stimulation of [35S]GTP-gamma-S, binding at CB2 receptor in presence of 3 uM CP-55940; assay type: functional
[5] = biological target: T1, Cannabinoid receptor 1; test: Effective concentration for stimulation of [35S]GTP-gamma-S binding at CB1 receptor in presence of 10 uM WIN-55212-2; assay type: functional
[6] = biological target: T2, Cannabinoid receptor 2; test: Percent maximal effectiveness for stimulation of [35S]GTP-gamma-S, binding at CB2 receptor in presence of 3 uM CP-55940; assay type: functional

T1 sequence (P20272 whole entry): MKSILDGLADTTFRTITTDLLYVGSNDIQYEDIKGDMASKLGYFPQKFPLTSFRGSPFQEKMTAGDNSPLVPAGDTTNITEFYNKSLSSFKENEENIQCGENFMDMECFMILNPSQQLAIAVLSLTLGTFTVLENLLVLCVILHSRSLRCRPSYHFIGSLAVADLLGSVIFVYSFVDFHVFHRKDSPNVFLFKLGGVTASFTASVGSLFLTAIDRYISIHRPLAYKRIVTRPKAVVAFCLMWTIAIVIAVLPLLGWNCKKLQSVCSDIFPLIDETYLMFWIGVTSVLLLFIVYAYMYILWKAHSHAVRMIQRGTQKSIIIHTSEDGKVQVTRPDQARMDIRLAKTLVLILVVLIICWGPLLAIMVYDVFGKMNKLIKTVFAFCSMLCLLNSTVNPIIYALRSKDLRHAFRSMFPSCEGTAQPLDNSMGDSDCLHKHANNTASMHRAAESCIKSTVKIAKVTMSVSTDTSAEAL

Structure (SMILES) | pKi [1] | pKi [2] | Ratio [3] | pEC50 [4] | pEC50 [5] | Emax [6]
CCCCCn1cc(C(=O)Cc2ccc(F)cc2)c2ccccc21 | 6.37 | 6.44 | 1.2 |  |  | 
CCCCCn1cc(C(=O)Cc2ccccc2C)c2ccccc21 | 7.54 | 6.84 | 0.2 | 8.08 | 7.54 | 47%
CCCCCn1c(C)c(C(=O)Cc2ccccc2OC)c2ccccc21 | 7.60 | 7.09 | 0.3 |  |  | 
CCCCCn1c(C)c(C(=O)Cc2ccc(OC)cc2)c2ccccc21 | 5.78 | 6.19 | 2.6 |  |  | 
CCCCCn1cc(C(=O)Cc2cccc(Cl)c2)c2ccccc21 | 7.42 | 6.97 | 0.36 |  |  | 
CCCCCn1c(C)c(C(=O)Cc2ccc(Cl)cc2)c2ccccc21 | 5.80 | 5.43 | 0.43 |  |  | 
CCCCCn1cc(C(=O)Cc2ccc(Br)cc2)c2ccccc21 |  | 6.18 | 1.6 |  |  | 
CCCCCn1cc(C(=O)Cc2ccccc2Cl)c2ccccc21 | 8.10 | 8.15 | 1.1 |  |  | 
CCCCCn1cc(C(=O)Cc2ccc(C)cc2)c2ccccc21 | 6.75 | 6.24 | 0.31 |  |  | 
CCCCCn1c(C)c(C(=O)Cc2ccc(C)cc2)c2ccccc21 | 6.13 | 5.87 | 0.55 |  |  | 
CCCCCn1c(C)c(C(=O)Cc2ccccc2Cl)c2ccccc21 | 7.89 | 7.60 | 0.52 |  |  | 
CCCCCn1cc(C(=O)Cc2cccc(OC)c2)c2ccccc21 | 7.77 | 7.05 | 0.19 | 7.61 | 7.53 | 33.5%
CCCCCn1c(C)c(C(=O)Cc2ccc(Br)cc2)c2ccccc21 |  | 5.57 | 1.2 |  |  | 
CCCCCn1cc(C(=O)Cc2ccc(Cl)cc2)c2ccccc21 | 6.41 | 6.30 | 0.78 |  |  | 
CCCCCn1cc(C(=O)Cc2ccccc2)c2ccccc21 | 7.05 | 6.80 | 0.57 |  |  | 
CCCCCn1c(C)c(C(=O)Cc2ccc(F)cc2)c2ccccc21 | 5.54 | 6.11 | 3.7 |  |  | 
CCCCCn1cc(C(=O)Cc2ccccc2OC)c2ccccc21 | 7.96 | 7.48 | 0.33 |  |  | 
CCCCCn1c(C)c(C(=O)Cc2cccc(Cl)c2)c2ccccc21 | 6.93 | 6.86 | 0.85 |  |  | 
CCCCCn1c(C)c(C(=O)Cc2ccccc2C)c2ccccc21 | 7.64 | 7.72 | 1.2 |  |  | 
CCCCCn1cc(C(=O)Cc2cccc(F)c2)c2ccccc21 | 7.14 | 7.04 | 0.79 |  |  | 
CCCCCn1c(C)c(C(=O)Cc2ccccc2Br)c2ccccc21 | 7.82 | 7.54 | 0.52 |  |  | 
CCCCCn1c(C)c(C(=O)Cc2ccccc2F)c2ccccc21 | 7.41 | 7.12 | 0.51 |  |  | 
CCCCCn1c(C)c(C(=O)Cc2ccccc2)c2ccccc21 | 6.91 | 6.74 | 0.69 |  |  | 
CCCCCn1cc(C(=O)Cc2ccc(OC)cc2)c2ccccc21 | 5.97 | 6.35 | 2.4 |  |  | 
CCCCCn1cc(C(=O)Cc2ccccc2F)c2ccccc21 | 7.64 | 7.41 | 0.6 |  |  | 
CCCCCn1c(C)c(C(=O)Cc2cccc(F)c2)c2ccccc21 | 6.37 | 6.74 | 2.4 |  |  | 
CCCCCn1c(C)c(C(=O)Cc2cccc(OC)c2)c2ccccc21 | 7.21 | 7.08 | 0.74 |  |  | 
CCCCCn1cc(C(=O)Cc2ccccc2Br)c2ccccc21 | 8.08 | 7.70 | 0.42 |  |  | 
